# Patent EP2435019B1, “DODECA-2E,4E-DIENE AMIDES AND THEIR USE AS MEDICAMENTS AND COSMETICS” (Dr. August Wolff GmbH & Co. KG Arzneimittel, priority 2009, dated 2010)
# Like-named read-outs stand apart in the source and are kept apart here.
# How the values were obtained:
# [1] = system: [3H]-AEA uptake; test: Cellular uptake of [3H]-AEA in human primary monocytes (assay C); type: cell-based; details: Figure 1(a), 1 µM
# Procedure: • Figure 1: AEA re-uptake inhibition of 2E,4E-dieneamides 1 and 9 into human primary monocytes and U937 cells. […] Data are mean values ± SEM of 3 independent experiments in a sigmoidal dose-response curve. • Figure 2: Concentration-dependent effects of 4 and 5 on FAAH activity. […] The maximal inhibition (32%) of 5 was measured at 1 µM. Data are mean values ± SEM of 3 independent experiments. • Figure 3: Effects of low nM concentrations of N-alkylamide 7 on FAAH activity alone and in combination with the FAAH inhibitor URB597. […] Data are mean values ± SEM of 3 independent experiments. • Figure 4: 1 and 9 inhibit LPS-induced TNF-alpha release into culture medium (measured by ELISA). Human macrophages (10^6 cells) were stimulated with LPS (500 ng/ml) and treated with UCM707 and/or compounds 1 and 9 at 5 µM for 18 h. N = 3 ± SEM. • Figure 5: UCM707 (positive control) and compounds 1 and 9 diminish NO2^- production. Human macrophages (10^6 cells) were stimulated with LPS (500 ng/ml) and treated with UCM707 and/or compounds 1 and 9 at 5 µM for 18 h. Culture supernatants were assayed for nitrite levels, using the Griess reagent as a reflection of NO production. […]
# Human lymphoma U937 cells were grown in RPMI 1640 medium (Invitrogen, Basel, Switzerland) supplemented with 10% fetal bovine serum, […] fungizone (amphotericin B), 100 units/ml penicillin, 100 µg/ml streptomycin, and 2 mM L-glutamine (all from Invitrogen) and selected for the cellular AEA uptake assay. […] The filters-bound radioactivity was measured using a Beckman LS6500 scintillation counter. Results were expressed as % of AEA uptake versus cells treated with solvent and the EC50 and IC50 values were calculated from the sigmoidal curves, which were generated using the GraphPad Prism (GraphPad Software, San Diego, CA, US).
# [2] = biological target: CB2 (Homo sapiens, UniProt P34972); test: Radioligand displacement assay on CB2 receptor; type: binding; parameters: purchased Perkin Elmer RBXCB2M
# [3] = system: IL-8; test: Induced chemokine IL-8 in HaCaT keratinocytes; type: cell-based, human; details: Figure 6, 5 µM, tolerogen 10 µg/ml, 6h
# Procedure: (§1) • Figure 1: AEA re-uptake inhibition of 2E,4E-dieneamides 1 and 9 into human primary monocytes and U937 cells. […] Data are mean values ± SEM of 3 independent experiments in a sigmoidal dose-response curve. • Figure 2: Concentration-dependent effects of 4 and 5 on FAAH activity. […] The maximal inhibition (32%) of 5 was measured at 1 µM. Data are mean values ± SEM of 3 independent experiments. • Figure 3: Effects of low nM concentrations of N-alkylamide 7 on FAAH activity alone and in combination with the FAAH inhibitor URB597. […] Data are mean values ± SEM of 3 independent experiments. • Figure 4: 1 and 9 inhibit LPS-induced TNF-alpha release into culture medium (measured by ELISA). Human macrophages (10^6 cells) were stimulated with LPS (500 ng/ml) and treated with UCM707 and/or compounds 1 and 9 at 5 µM for 18 h. N = 3 ± SEM. • Figure 5: UCM707 (positive control) and compounds 1 and 9 diminish NO2^- production. Human macrophages (10^6 cells) were stimulated with LPS (500 ng/ml) and treated with UCM707 and/or compounds 1 and 9 at 5 µM for 18 h. Culture supernatants were assayed for nitrite levels, using the Griess reagent as a reflection of NO production. Results are the mean ± SEM of four independent experiments performed in duplicate • Figure 6: In CB receptor expressing human HaCaT keratinocytes (10^6 cells) UCM707 (control) 1 and 9 like the endocannabinoid anandamide (each 5 µM) inhibited tolerogen (10 µg/ml) induced chemokine IL-8 (6h stimulation and incubation). N = 3 ± SEM.
# [4] = system: NO2^- production; test: NO2- production in LPS-stimulated human macrophages (Griess reagent); type: cell-based; details: Figure 5; LPS 500 ng/ml; 5 µM for 18 h
# Procedure: as §1
# [5] = Critical micelle concentration (CMC) measurement, dye micellization; type: physicochemical; details: fluorescein dye micellization in water, pH 6.9, room temperature
# CB2, sequence (P34972 whole entry): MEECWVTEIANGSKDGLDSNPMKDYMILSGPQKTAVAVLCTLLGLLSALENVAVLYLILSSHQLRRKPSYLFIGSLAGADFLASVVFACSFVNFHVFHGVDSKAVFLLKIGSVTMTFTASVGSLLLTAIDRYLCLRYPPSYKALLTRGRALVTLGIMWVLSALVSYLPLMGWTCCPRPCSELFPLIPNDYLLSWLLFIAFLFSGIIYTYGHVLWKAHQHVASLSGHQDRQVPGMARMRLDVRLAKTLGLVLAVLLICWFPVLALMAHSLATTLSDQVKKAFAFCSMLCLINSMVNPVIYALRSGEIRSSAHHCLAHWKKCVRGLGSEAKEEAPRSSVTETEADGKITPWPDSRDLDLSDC
SMILES,[3H]-AEA uptake inhibition [1],Ki [2] [µM],tolerogen induced chemokine IL-8 [3],NO2^- production [4],CMC [5] [µM],"Ki ([2]; displacement of 0.11 nM [3H]CP55,940, membrane recombinantly over-expressing CB2, read-out: Receptor affinity Ki CB2) [µM]"
"CCCCCCC/C=C/C=C/C(=O)NCCO [Example 1, (2E,4E)-N-(2-hydroxyethyl)dodeca-2,4-diene amide]",potently inhibited,> 20,inhibited,diminish,>10,–
"CCCCCCC/C=C/C=C/C(=O)NCCc1cccc(OC)c1 [Example 9, (2E,4E)-N-(3-methoxyphenethyl)dodeca-2,4-diene amide]",potently inhibited,–,inhibited,diminish,>5,9.44 ± 0.889
